Measured values taken from US8252326B2, “Self-microemulsifying dosage forms of low solubility active ingredients such as co-enzyme Q10” (Catalent Australia Pty Ltd., priority 2005, dated 2012).

Legend:
[1] = Solubility of coenzyme Q10 in oils, surfactants and co-surfactants; type: physicochemical
Method: To determine suitable excipient systems for actives, solubility studies were carried out on a variety of constituents of the inventive SMEDDS formulations. The solubility of Q10 in various oils, surfactants and co-surfactants were determined by placing an excess of the Q10 (approximately 2.5 g) in 22.5 g of the vehicle in screw capped glass bottles and heating the mixture to 55° C. in a water bath to facilitate the solubilization. Mixtures were equilibrated at room temperature for 24 hours and then filtered through 0.45 μm membrane filter to separate the undissolved drug. One gram of the filtered liquid mixtures were then weighed and diluted with cyclohexane and quantified by UV/Visible Spectrometry. Lemon oil and isopropyl myristate provided higher solubility than other oils. Although not limited to a theory of operation, it is believed that the oils form a distinct core in the interior of the surfactant aggregate when being dispersed in water, resulting in enhanced solubilizing capacity of the oils with improved drug loading capabilities of the emulsion.

[2] = cited from earlier work

COC1=C(OC)C(=O)C(C/C=C(\C)CC/C=C(\C)CC/C=C(\C)CC/C=C(\C)CC/C=C(\C)CC/C=C(\C)CC/C=C(\C)CC/C=C(\C)CC/C=C(\C)CCC=C(C)C)=C(C)C1=O [Coenzyme Q10]
Solubility of coenzyme Q10 (% w/w) ([1]; in Acetylated monoglycerides, room temperature 24 hours): 7.5 % w/w
Solubility of coenzyme Q10 (% w/w) ([1]; in Capmul MCM C8, room temperature 24 hours): 1.50 % w/w
Solubility of coenzyme Q10 (% w/w) ([1]; in Glyceryl mono-oleate, room temperature 24 hours): 2.41 % w/w
Solubility of coenzyme Q10 (% w/w) ([1]; in Isopropyl myristate, room temperature 24 hours): 11.2 % w/w
Solubility of coenzyme Q10 (% w/w) ([1]; in Labrafac Hydro WL1219, room temperature 24 hours): 3.17 % w/w
Solubility of coenzyme Q10 (% w/w) ([1]; in Labrafil M 1944, room temperature 24 hours): 5.91 % w/w
Solubility of coenzyme Q10 (% w/w) ([1]; in Labrafil M 2125, room temperature 24 hours): 5.35 % w/w
Solubility of coenzyme Q10 (% w/w) ([1]; in Lauroglyco 1 FCC, room temperature 24 hours): 3.05 % w/w
Solubility of coenzyme Q10 (% w/w) ([1]; in Lauroglyco 190, room temperature 24 hours): 3.06 % w/w
Solubility of coenzyme Q10 (% w/w) ([1]; in Lemon oil, equilibrated at room temperature 24 hours, 0.45 μm filtered): 24.3 % w/w
Solubility of coenzyme Q10 (% w/w) ([1]; in Medium chain triglycerides, room temperature 24 hours): 3.74 % w/w
Solubility of coenzyme Q10 (% w/w) ([1]; in Oleic acid, room temperature 24 hours): 3.80 % w/w
Solubility of coenzyme Q10 (% w/w) ([1]; in PEG 35 Castor oil, room temperature 24 hours): 2.34 % w/w
Solubility of coenzyme Q10 (% w/w) ([1]; in Polysorbate 80, room temperature 24 hours): 0.370 % w/w
Solubility of coenzyme Q10 (% w/w) ([1]; in Polysorbate 85, room temperature 24 hours): 1.57 % w/w
Solubility of coenzyme Q10 (% w/w) ([1]; in Span 80, room temperature 24 hours): 3.24 % w/w
Solubility of coenzyme Q10 (% w/w) ([1]; in Transcutol P, room temperature 24 hours): 0.260 % w/w
Solubility in water [2]: practically insoluble in water
